Laboratory results taken from patent US9260417B2, “Therapeutic methods and compositions involving allosteric kinase inhibition” (AMITECH THERAPEUTIC SOLUTIONS, INC., priority 2010, dated 2016).

Tests used:
Test in all cases: In vitro kinase panel (SelectScreen)
Assay type in all cases: biochemical
[1] = molecular target: AKT1 (Homo sapiens (Human), UniProt P31749)
Excerpt: (§1) In vitro kinase screen and competitive binding assay. Sorafenib as well as test compounds were submitted to Invitrogen and screened using their SelectScreen™ Profiling Service.

[2] = molecular target: CDK2 (Homo sapiens (Human), UniProt P24941)
Excerpt: as §1

[3] = molecular target: CK2 alpha 1 (Homo sapiens (Human), UniProt P68400)
Excerpt: as §1

[4] = molecular target: CRAF Y340D Y341D (Homo sapiens (Human), UniProt P04049, Y340D/Y341D)
Excerpt: as §1

[5] = molecular target: ERK1 (Homo sapiens (Human), UniProt P27361)
Excerpt: as §1

[6] = molecular target: ERK2 (Homo sapiens (Human), UniProt P28482)
Excerpt: as §1

[7] = molecular target: FAK2 (Homo sapiens (Human), UniProt Q14289)
Excerpt: as §1

[8] = molecular target: FGFR1 (Homo sapiens (Human), UniProt P11362)
Excerpt: as §1

[9] = molecular target: FGFR2 (Homo sapiens (Human), UniProt P21802)
Excerpt: as §1

[10] = molecular target: FGFR3 (Homo sapiens (Human), UniProt P22607)
Excerpt: as §1

[11] = molecular target: FGFR3 K650E (Homo sapiens (Human), UniProt P22607, K650E)
Excerpt: as §1

[12] = molecular target: FGFR4 (Homo sapiens (Human), UniProt P22455)
Excerpt: as §1

[13] = molecular target: FLT1 (VEGFR1) (Homo sapiens (Human), UniProt P17948)
Excerpt: as §1

[14] = molecular target: IGF1R (Homo sapiens (Human), UniProt P08069)
Excerpt: as §1

[15] = molecular target: JNK1 (Homo sapiens (Human), UniProt P45983)
Excerpt: as §1

[16] = molecular target: JNK2 (Homo sapiens (Human), UniProt P45984)
Excerpt: as §1

[17] = molecular target: JNK3 (Homo sapiens (Human), UniProt P53779)
Excerpt: as §1

[18] = molecular target: KIT (Homo sapiens (Human), UniProt P10721)
Excerpt: as §1

[19] = molecular target: MAPKAPK2 (Homo sapiens (Human), UniProt P49137); conditions: for % Inhibition at 10 μM: MAPKAPK2
Excerpt: as §1

[20] = molecular target: MEK1 (Homo sapiens (Human), UniProt Q02750)
Excerpt: as §1

[21] = molecular target: MEK2 (Homo sapiens (Human), UniProt P36507)
Excerpt: as §1

[22] = molecular target: MET (cMet) (Homo sapiens (Human), UniProt P08581)
Excerpt: as §1

[23] = molecular target: MET M1250T (Homo sapiens (Human), UniProt P08581, M1250T)
Excerpt: as §1

[24] = molecular target: PAK2 (Homo sapiens (Human), UniProt Q13177)
Excerpt: as §1

[25] = molecular target: PDGFR beta (Homo sapiens (Human), UniProt P09619)
Excerpt: as §1

[26] = molecular target: PKC alpha (Homo sapiens (Human), UniProt P17252)
Excerpt: as §1

[27] = molecular target: PKC beta I (Homo sapiens (Human), UniProt P05771)
Excerpt: as §1

[28] = molecular target: PKC beta II (Homo sapiens (Human), UniProt P05771)
Excerpt: as §1

[29] = molecular target: PKC delta (Homo sapiens (Human), UniProt Q05655)
Excerpt: as §1

[30] = molecular target: PKC epsilon (Homo sapiens (Human), UniProt Q02156)
Excerpt: as §1

[31] = molecular target: PKC eta (Homo sapiens (Human), UniProt P24723)
Excerpt: as §1

[32] = molecular target: PKC gamma (Homo sapiens (Human), UniProt P05129)
Excerpt: as §1

[33] = molecular target: PKC iota (Homo sapiens (Human), UniProt P41743)
Excerpt: as §1

Chain of FGFR4 (P22455 22-802): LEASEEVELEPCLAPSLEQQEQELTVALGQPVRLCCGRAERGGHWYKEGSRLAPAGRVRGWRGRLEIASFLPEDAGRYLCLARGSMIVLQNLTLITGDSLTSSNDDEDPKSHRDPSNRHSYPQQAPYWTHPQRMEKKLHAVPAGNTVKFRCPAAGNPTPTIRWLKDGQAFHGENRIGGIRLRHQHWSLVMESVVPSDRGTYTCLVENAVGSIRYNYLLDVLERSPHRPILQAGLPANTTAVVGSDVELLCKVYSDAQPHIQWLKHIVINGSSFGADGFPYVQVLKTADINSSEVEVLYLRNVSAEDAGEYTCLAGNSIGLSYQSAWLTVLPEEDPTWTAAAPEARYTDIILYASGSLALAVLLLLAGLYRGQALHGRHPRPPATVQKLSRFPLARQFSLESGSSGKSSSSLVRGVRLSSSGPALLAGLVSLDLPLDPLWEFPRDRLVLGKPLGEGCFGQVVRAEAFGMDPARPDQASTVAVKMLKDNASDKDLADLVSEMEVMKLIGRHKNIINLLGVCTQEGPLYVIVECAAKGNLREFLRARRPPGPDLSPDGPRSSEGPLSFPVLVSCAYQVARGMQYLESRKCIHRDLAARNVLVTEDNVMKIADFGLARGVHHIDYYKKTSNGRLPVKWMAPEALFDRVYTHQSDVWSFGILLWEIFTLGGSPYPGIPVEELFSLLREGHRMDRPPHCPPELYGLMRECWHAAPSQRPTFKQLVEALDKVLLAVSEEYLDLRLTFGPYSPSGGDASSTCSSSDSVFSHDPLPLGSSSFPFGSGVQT
Chain of MEK1 (Q02750 whole entry): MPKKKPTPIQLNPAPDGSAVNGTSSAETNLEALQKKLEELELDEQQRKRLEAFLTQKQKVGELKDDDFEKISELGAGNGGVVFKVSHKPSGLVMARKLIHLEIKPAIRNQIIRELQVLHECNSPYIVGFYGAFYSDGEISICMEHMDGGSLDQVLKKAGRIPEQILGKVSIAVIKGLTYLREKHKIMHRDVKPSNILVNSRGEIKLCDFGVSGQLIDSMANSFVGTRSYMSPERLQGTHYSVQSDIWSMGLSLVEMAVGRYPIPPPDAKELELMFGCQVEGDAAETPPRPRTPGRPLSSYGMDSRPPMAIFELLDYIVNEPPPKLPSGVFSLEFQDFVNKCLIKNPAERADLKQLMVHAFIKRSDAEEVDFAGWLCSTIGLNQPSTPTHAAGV
Chain of MET (cMet) (P08581 25-1390): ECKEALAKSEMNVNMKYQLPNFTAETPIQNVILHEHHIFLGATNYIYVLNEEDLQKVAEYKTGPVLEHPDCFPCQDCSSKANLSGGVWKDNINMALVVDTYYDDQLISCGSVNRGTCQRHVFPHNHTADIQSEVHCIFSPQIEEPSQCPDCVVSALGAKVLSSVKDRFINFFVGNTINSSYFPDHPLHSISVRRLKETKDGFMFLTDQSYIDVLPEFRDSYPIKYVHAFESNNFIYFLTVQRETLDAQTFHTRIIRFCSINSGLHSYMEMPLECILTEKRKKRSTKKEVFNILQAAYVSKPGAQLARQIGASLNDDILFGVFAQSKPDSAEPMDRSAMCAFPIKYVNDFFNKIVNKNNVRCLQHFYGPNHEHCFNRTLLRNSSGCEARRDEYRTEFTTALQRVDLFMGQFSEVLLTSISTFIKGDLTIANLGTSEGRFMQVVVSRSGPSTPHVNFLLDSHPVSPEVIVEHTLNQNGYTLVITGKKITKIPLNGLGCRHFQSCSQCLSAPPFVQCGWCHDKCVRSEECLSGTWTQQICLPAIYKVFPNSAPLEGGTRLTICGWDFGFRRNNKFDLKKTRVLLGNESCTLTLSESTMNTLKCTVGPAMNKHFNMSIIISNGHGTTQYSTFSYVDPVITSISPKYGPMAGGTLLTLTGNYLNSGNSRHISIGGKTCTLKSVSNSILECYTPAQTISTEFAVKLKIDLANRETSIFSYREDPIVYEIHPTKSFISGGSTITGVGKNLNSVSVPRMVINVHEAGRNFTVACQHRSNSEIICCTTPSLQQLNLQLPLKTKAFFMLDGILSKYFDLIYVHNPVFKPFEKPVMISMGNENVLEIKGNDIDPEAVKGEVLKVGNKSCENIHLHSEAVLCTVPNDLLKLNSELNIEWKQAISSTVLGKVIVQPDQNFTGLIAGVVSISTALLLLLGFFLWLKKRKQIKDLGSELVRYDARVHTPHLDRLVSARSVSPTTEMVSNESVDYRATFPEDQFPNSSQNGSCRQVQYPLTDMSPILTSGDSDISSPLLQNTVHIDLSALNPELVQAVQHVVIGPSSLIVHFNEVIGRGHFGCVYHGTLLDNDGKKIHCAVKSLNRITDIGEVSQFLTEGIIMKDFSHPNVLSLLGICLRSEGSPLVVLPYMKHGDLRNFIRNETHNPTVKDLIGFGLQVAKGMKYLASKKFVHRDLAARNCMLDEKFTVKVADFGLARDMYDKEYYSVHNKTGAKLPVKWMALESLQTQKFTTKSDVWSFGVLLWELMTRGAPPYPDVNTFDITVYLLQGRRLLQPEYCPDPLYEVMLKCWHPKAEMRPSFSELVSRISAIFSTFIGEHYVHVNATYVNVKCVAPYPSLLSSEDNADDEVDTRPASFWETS
Chain of PKC iota (P41743 whole entry): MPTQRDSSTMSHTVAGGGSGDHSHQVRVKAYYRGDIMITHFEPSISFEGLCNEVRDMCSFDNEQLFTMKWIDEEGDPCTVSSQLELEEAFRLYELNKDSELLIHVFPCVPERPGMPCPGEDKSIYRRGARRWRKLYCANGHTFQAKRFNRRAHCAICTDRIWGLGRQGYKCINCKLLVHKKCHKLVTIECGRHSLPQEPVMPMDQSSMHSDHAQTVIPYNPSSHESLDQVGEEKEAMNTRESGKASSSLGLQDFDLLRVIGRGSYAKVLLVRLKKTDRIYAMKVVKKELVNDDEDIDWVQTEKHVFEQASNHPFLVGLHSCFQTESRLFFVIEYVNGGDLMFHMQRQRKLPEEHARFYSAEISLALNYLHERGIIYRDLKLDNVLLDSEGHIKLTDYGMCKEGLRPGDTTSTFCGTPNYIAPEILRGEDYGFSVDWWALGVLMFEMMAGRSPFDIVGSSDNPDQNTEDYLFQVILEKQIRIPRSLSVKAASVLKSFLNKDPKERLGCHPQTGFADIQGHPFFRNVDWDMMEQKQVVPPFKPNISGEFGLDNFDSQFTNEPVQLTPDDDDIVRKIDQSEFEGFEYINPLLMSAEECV
Chain of MET M1250T (P08581 25-1390 M1250T): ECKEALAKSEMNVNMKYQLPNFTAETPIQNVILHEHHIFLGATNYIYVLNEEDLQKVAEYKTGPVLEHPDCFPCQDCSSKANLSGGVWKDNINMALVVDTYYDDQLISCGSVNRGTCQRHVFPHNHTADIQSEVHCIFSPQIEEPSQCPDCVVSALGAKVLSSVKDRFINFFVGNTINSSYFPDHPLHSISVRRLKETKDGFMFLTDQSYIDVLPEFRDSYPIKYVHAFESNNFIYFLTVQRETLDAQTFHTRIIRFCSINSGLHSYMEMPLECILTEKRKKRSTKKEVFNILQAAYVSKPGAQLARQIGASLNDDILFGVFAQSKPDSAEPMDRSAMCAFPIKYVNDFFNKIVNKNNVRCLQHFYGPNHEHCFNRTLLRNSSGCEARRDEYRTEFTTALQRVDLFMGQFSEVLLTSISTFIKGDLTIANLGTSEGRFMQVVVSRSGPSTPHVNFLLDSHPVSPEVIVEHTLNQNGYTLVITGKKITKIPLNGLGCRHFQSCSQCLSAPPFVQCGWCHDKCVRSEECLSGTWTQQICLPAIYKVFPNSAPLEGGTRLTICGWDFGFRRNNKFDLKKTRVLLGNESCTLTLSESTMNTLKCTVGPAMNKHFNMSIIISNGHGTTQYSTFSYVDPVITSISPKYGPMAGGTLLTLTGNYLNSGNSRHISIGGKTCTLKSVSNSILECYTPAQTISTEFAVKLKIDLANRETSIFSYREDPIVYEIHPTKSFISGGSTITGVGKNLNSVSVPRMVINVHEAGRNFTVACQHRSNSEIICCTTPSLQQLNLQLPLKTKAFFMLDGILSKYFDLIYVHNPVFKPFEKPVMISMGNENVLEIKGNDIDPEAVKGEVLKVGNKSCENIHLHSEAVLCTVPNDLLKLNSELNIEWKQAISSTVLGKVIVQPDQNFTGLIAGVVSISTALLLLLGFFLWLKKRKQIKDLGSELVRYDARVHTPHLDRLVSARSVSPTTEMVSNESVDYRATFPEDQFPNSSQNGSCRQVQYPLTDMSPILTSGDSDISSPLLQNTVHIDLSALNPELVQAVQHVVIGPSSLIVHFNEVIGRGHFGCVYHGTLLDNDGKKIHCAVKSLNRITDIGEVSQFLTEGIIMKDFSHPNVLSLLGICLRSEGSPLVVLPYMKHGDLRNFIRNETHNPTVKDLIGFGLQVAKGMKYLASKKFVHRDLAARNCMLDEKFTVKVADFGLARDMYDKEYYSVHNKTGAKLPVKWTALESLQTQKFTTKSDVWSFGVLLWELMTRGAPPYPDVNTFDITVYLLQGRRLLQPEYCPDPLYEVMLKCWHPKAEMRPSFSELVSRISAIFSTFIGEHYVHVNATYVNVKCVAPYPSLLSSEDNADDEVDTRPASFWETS
Chain of AKT1 (P31749 whole entry): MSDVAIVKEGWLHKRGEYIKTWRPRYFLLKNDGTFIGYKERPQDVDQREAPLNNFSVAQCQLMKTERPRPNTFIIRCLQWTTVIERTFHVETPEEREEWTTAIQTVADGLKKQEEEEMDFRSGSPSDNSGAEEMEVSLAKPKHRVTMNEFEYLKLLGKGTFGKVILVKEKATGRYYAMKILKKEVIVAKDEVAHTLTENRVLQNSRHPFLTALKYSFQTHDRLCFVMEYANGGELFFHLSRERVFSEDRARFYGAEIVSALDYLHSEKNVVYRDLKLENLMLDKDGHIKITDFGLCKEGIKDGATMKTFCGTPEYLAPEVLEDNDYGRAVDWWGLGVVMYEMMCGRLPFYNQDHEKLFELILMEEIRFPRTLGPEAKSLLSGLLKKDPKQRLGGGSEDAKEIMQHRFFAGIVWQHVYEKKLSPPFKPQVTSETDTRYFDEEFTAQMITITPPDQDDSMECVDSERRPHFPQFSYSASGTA

Nc1cc(Oc2ccc(-c3nnc(Nc4cccc(C(F)(F)F)c4)[nH]3)cc2)ncn1 [Compound 3]
% Inhibition at 10 μM [1]: 1% | % Inhibition at 10 μM [2]: 2% | % Inhibition at 10 μM [3]: −3% | % Inhibition at 10 μM [4]: 38% | % Inhibition at 10 μM [5]: 1% | % Inhibition at 10 μM [6]: −4% | % Inhibition at 10 μM [7]: −4% | % Inhibition at 10 μM [8]: 9% | % Inhibition at 10 μM [9]: −1% | % Inhibition at 10 μM [10]: −12% | % Inhibition at 10 μM [11]: 4% | % Inhibition at 10 μM [12]: −6% | % Inhibition at 10 μM [13]: 5% | % Inhibition at 10 μM [14]: −4% | % Inhibition at 10 μM [15]: −5% | % Inhibition at 10 μM [16]: −7% | % Inhibition at 10 μM [17]: −8% | % Inhibition at 10 μM [18]: 74% | % Inhibition at 10 μM [19]: 1% | % Inhibition at 10 μM [20]: −5% | % Inhibition at 10 μM [21]: −8% | % Inhibition at 10 μM [22]: 7% | % Inhibition at 10 μM [23]: 4% | % Inhibition at 10 μM [24]: 2% | % Inhibition at 10 μM [25]: 35% | % Inhibition at 10 μM [26]: −5% | % Inhibition at 10 μM [27]: −3% | % Inhibition at 10 μM [28]: −3% | % Inhibition at 10 μM [29]: −1% | % Inhibition at 10 μM [30]: −3% | % Inhibition at 10 μM [31]: 1% | % Inhibition at 10 μM [32]: 6% | % Inhibition at 10 μM [33]: −2%

CSc1nc(N)cc(Oc2ccc(-c3nnc(Nc4cccc(C(F)(F)F)c4)[nH]3)cc2)n1 [Compound 6]
% Inhibition at 10 μM [1]: 2% | % Inhibition at 10 μM [2]: 2% | % Inhibition at 10 μM [3]: 0% | % Inhibition at 10 μM [4]: 3% | % Inhibition at 10 μM [5]: 2% | % Inhibition at 10 μM [6]: −5% | % Inhibition at 10 μM [7]: −4% | % Inhibition at 10 μM [8]: 6% | % Inhibition at 10 μM [9]: −2% | % Inhibition at 10 μM [10]: −13% | % Inhibition at 10 μM [11]: −1% | % Inhibition at 10 μM [12]: −7% | % Inhibition at 10 μM [13]: −2% | % Inhibition at 10 μM [14]: 0% | % Inhibition at 10 μM [15]: −3% | % Inhibition at 10 μM [16]: −4% | % Inhibition at 10 μM [17]: −8% | % Inhibition at 10 μM [18]: 28% | % Inhibition at 10 μM [19]: 2% | % Inhibition at 10 μM [20]: −2% | % Inhibition at 10 μM [21]: −6% | % Inhibition at 10 μM [22]: 3% | % Inhibition at 10 μM [23]: −1% | % Inhibition at 10 μM [24]: 1% | % Inhibition at 10 μM [25]: 20% | % Inhibition at 10 μM [26]: −1% | % Inhibition at 10 μM [27]: 2% | % Inhibition at 10 μM [28]: −4% | % Inhibition at 10 μM [29]: −1% | % Inhibition at 10 μM [30]: −1% | % Inhibition at 10 μM [31]: 3% | % Inhibition at 10 μM [32]: 5% | % Inhibition at 10 μM [33]: 0%

CNC(=O)c1cc(Oc2ccc(NC(=O)Nc3ccc(Cl)c(C(F)(F)F)c3)cc2)ccn1 [sorafenib, reference compound]
inhibition at 10 µM [1]: 2% | inhibition at 10 µM [2]: 2% | inhibition at 10 µM [3]: -3% | inhibition at 10 µM [4]: 95% | inhibition at 10 µM [5]: 3% | inhibition at 10 µM [6]: 0% | inhibition at 10 µM [7]: -3% | inhibition at 10 µM [8]: 44% | inhibition at 10 µM [9]: 83% | inhibition at 10 µM [10]: 37% | inhibition at 10 µM [11]: 78% | inhibition at 10 µM [12]: 7% | inhibition at 10 µM [13]: 93% | inhibition at 10 µM [14]: -3% | inhibition at 10 µM [15]: -2% | inhibition at 10 µM [16]: 10% | inhibition at 10 µM [17]: -4% | inhibition at 10 µM [18]: 37% | inhibition at 10 µM ([19]; read-out: % Inhibition at 10 μM): 2% | inhibition at 10 µM [20]: 0% | inhibition at 10 µM [21]: -4% | inhibition at 10 µM [22]: 2% | inhibition at 10 µM [23]: 3% | inhibition at 10 µM [24]: 2% | inhibition at 10 µM [25]: 93% | inhibition at 10 µM [26]: -2% | inhibition at 10 µM [27]: -1% | inhibition at 10 µM [28]: -3% | inhibition at 10 µM [29]: -4% | inhibition at 10 µM [30]: -2% | inhibition at 10 µM [31]: 2% | inhibition at 10 µM [32]: -3% | inhibition at 10 µM [33]: -2%
